In the test the test system is mushroom tyrosinase (Sigma). Briefly: Tyrosinase inhibition assay. The test is classed as biochemical. The following applies: for IC50: 0.5 mM tyrosine, pH 7.00, tyrosinase 60.5 U/mL, read-out: IC50 tyrosinase inhibition activity: components. On the procedure: Determination of melanin content within each MelanoDerm was performed by absorbance measurement at 475 nm. IC50 was determined by Tyrosinase inhibition assay. […] The reaction rate in the first 6.5 min is calculated based on the absorbance change at 475 nm.

With `C=C(C)C(CC=C(C)C)Cc1c2c(c(O)c3c1OC(c1ccc(O)cc1)C3c1cc(O)cc(O)c1)C(=O)CC(c1ccc(O)cc1O)O2` (stereo not drawn) [Alopecurone A], the “tyrosinase inhibition activity (in words)” value is on record as “showing tyrosinase inhibition activity” and the IC50 (usually the midpoint of a concentration-inhibition curve) is 9 µM.
For `C=C(C)C(CC=C(C)C)Cc1c2c(c(O)c3c1OC(c1ccc(O)cc1)C3c1cc(O)cc(O)c1)C(=O)CC(c1ccc(O)cc1O)O2` (stereo not drawn) [Alopecurone B], in that order: “showing tyrosinase inhibition activity” and 5 µM.
With `Oc1ccc(O)cc1` [Hydroquinone, reference compound], the IC50 came to 36.4 µM. For the same compound, the “IC50 tyrosinase inhibition activity, in brackets by weight” value (same value as the μM figure) is recorded as “(4 micro-q/ml) micro-g/ml”.
On to `C=C(C)[C@H](CC=C(C)C)Cc1c(O)cc(O)c2c1O[C@H](c1ccc(O)cc1O)CC2=O` [Sophoraflavone G], for which the IC50 was determined as 14 µM.
On the same count and under the same terms, with Sophoraflavone I the figure was 15 µM.
Still for that read-out and setting: the result for Sophoraflavone K reads 1 µM.

The values are drawn from patent US20060110341A1, “Cosmetic compositions containing Sophora alopecuroides L. extracts” (Unilever Home & Personal Care USA, Division Of Conopco, Inc., priority 2004, published 2006).
